The record followed here is ChEMBL document CHEMBL5537132, “Reassessing the putative molecular Target(s) of potent antitubercular 2-(Alkylsulfonyl)acetamides” (2024).

≈ marks a conversion by molar mass, not a printed value.

In one experiment the test system is Mycobacterium tuberculosis. Briefly: Antitubercular activity against Mycobacterium tuberculosis H37Rv assessed as inhibition of bacterial growth by BACTEC radiometric assay. Type of experiment: functional.
Conditions: not given
Take `CCCCCCCCS(=O)(=O)CC(=O)O`: the MIC was greater than 25 µg/mL.

On to `NC(=O)CS(=O)(=O)CCCCc1ccccc1`, for which the MIC is greater than 25 µg/mL.

Take `NC(=O)CS(=O)(=O)CCCCCc1ccccc1`: the MIC was found to be 12.5 µg/mL (≈ 46.4 µM).

As to `NC(=O)CS(=O)(=O)CCCCCCC1C=CC=CC1` (stereo not drawn), the minimum inhibitory concentration (MIC) is 12.5 µg/mL (≈ 43.8 µM).

The subject of the next experiment is Mycobacterium tuberculosis. Briefly: Antitubercular activity against Mycobacterium tuberculosis. In kind it is functional.
Conditions: not given
Consider `CCCCCCCCCOCC(=O)NS(=O)(=O)OC[C@H]1O[C@@H](n2cnc3c(N)ncnc32)[C@H](O)[C@@H]1O`, for which 0.1 µM (≈ 0.0531 µg/mL) was the least that counted as inhibitory (MIC).

As to `CCCCCCCCCCS(=O)(=O)CC(N)=O`, the MIC turned out to be 2.9 µM (≈ 0.764 µg/mL).

As for `CCCCCCCCCCCCS(=O)(=O)CC(N)=O`, 43 µM (≈ 12.5 µg/mL) was the least that counted as inhibitory (MIC).

Take `CCCCCCCCCCCCCCCCCCCCOP(=O)(O)OC[C@H]1O[C@@H](n2cnc3c(N)ncnc32)[C@H](O)[C@@H]1O`: the MIC came out at 0.9 µM (≈ 0.565 µg/mL).

In the case of `CCCCCCCCCS(=O)(=O)CC(N)=O`, the MIC is 12 µM (≈ 2.99 µg/mL).

`CCCCCCCCCCCC(=O)NS(=O)(=O)OC[C@H]1O[C@@H](n2cnc3c(N)ncnc32)[C@H](O)[C@@H]1O` had an MIC of 0.2 µM (≈ 0.106 µg/mL).

`CCCCCCCCS(=O)(=O)CC(N)=O`: inhibition of growth (MIC) required 27 µM (≈ 6.35 µg/mL).

As to `Nc1ncnc2c1ncn2[C@@H]1O[C@H](COS(=O)(=O)NC(=O)CCCCCCCCCCOc2ccccc2)[C@@H](O)[C@H]1O`, the MIC stood at 3.1 µM (≈ 1.88 µg/mL).

The molecule `CCCCCCS(=O)(=O)CC(N)=O` had a minimum inhibitory concentration (MIC) of 241 µM (≈ 50 µg/mL).

For the molecule `CCCCCCCS(=O)(=O)CC(N)=O`, the MIC is greater than 113 µM.

`[N-]=[N+]=NCCCCCCCCCCCC(=O)NS(=O)(=O)OC[C@H]1O[C@@H](n2cnc3c(N)ncnc32)[C@H](O)[C@@H]1O` gave an MIC of 0.2 µM (≈ 0.114 µg/mL).

As for `NC(=O)CS(=O)(=O)CCCCc1ccccc1`, the MIC was greater than 100 µM.

For `CCCCCCCCCCCCOP(=O)(O)OC[C@H]1O[C@@H](n2cnc3c(N)ncnc32)[C@H](O)[C@@H]1O`, inhibition of growth (MIC) required 1.9 µM (≈ 0.98 µg/mL).

Turning to `NC(=O)CS(=O)(=O)CCCCCc1ccccc1`, inhibition of growth (MIC) required 46 µM (≈ 12.4 µg/mL).

With `CCCCCCCCCCCCCCCCCCS(=O)(=O)CC(N)=O`, the MIC was greater than 133 µM.

`NC(=O)CS(=O)(=O)CCCCCCC1C=CC=CC1` (stereo not drawn) displayed an MIC of 44 µM (≈ 12.6 µg/mL).

Another experiment concerns Mycobacterium tuberculosis. Briefly: Antitubercular activity against Mycobacterium tuberculosis H37Rv assessed as inhibition of bacterial growth by colorimetric microdilution broth assay. Type of experiment: functional.
Conditions: not given
For `NC[C@H]1O[C@@H](n2cnc3c(N)ncnc32)[C@H](O)[C@@H]1O`, the MIC was greater than 100 µg/mL.

In another experiment the test system is Mycobacterium tuberculosis. Briefly: Antitubercular activity against Mycobacterium tuberculosis H37Rv assessed as bacterial growth incubated for 5 days by resazurin staining based fluorescent plate reader analysis relative to control. In kind it is functional. Particulars: time 5 day. On the technique in general: Alamar Blue is a resazurin reagent that responds to reducing activity.
`CCCCCCCCCCS(=O)(=O)CC(=O)NC[C@H]1O[C@@H](n2cnc3c(N)ncnc32)[C@H](O)[C@@H]1O`: the Activity amounted to 100%.

For the next experiment, the system named is Mycobacterium tuberculosis. Briefly: Antitubercular activity against Mycobacterium tuberculosis H37Rv assessed as minimum inhibitory concentration incubated for 5 days by resazurin staining based fluorescent plate reader analysis. Type of experiment: functional. The note with it: 120 h, time 5 day.
For `CCCCCCCCCCS(=O)(=O)CC(N)=O`, the MIC90 was found to be 1.32 µg/mL (≈ 5.01 µM).

Take `NC(=O)CS(=O)(=O)CCCCCCCCCCc1ccccc1`: the MIC90 was determined as 13 µg/mL (≈ 38.3 µM).

Take `CCCCCCCCCCS(=O)(=O)Cc1cn(C[C@H]2O[C@@H](n3cnc4c(N)ncnc43)[C@H](O)[C@@H]2O)nn1`: the MIC90 was greater than 50 µg/mL.

As to `CCCCCCCCCCS(=O)(=O)Cc1nc2ccccc2oc1=O`, the MIC90 was 5.85 µg/mL (≈ 16 µM).

Consider `CCCCCCCCCCS(=O)(=O)Cc1cn(C[C@H]2O[C@H](OCc3ccccc3)[C@@H](O)[C@@H](O)[C@@H]2O)nn1`, for which the MIC90 was greater than 50 µg/mL.

Take `CCCCCCCCCCCS(=O)(=O)CC(N)=O`: the MIC90 amounted to 1.39 µg/mL (≈ 5.01 µM).

`CCCCCCCCCCS(=O)(=O)Cc1cn(CCCn2cnc3ccccc32)nn1`: the MIC90 was greater than 50 µg/mL.

Take `CCCCCCCCCCS(=O)(=O)Cc1cn(CCCCn2c(=O)oc3ccccc32)nn1`: the MIC90 is greater than 50 µg/mL.

`NC(=O)CS(=O)(=O)Cc1ccccc1`: the MIC90 was greater than 50 µg/mL.

`CCCCCCCCCCS(=O)(=O)CC(=O)NC[C@H]1O[C@H](OCc2ccccc2)[C@@H](O)[C@@H](O)[C@@H]1O`: the MIC90 was greater than 50 µg/mL.

For `NC(=O)CS(=O)(=O)CCCCCCCCc1ccccc1`, the MIC90 is 16 µg/mL (≈ 51.4 µM).

What is called MIC is the least concentration at which growth counts as inhibited. The MIC90 is the lowest concentration that inhibits either 90% of growth or 90% of the strains tested, depending on the study.
